Where two headings read alike, the source gives them in different places.
Assays:
[1] = tested on: 3D human liver microtissues (hLiMT); assay: Cytotoxicity (cellular ATP, CellTiter-Glo 2.0) in 3D human liver microtissues, 14 day repeat-dose treatment; details: for IC50: Homo sapiens, 336 h
[2] = cited from earlier work; for P/N (DILI positive / DILI negative): P = DILI severity categories 1, 2 and 3, N = categories 4 and 5; for DILI category: clinical, from literature and product labels
[3] = tested on: primary human hepatocytes (PHH); assay: Cytotoxicity (cellular ATP, CellTiter-Glo) in 2D plated primary human hepatocytes, 48 h treatment; assay type: cell-based; details: for IC50: Hepatocyte, read-out: Geomean IC50;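 as to all read-outs here: 384-well plates, luminescence read-out, normalized to vehicle wells with 1% DMSO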
Experimental: Cryopreserved PHH (lot IZT) were thawed in InVitroGro HT™ thawing media at 37 °C, pelleted, and resuspended. Viable hepatocytes were counted by Trypan blue exclusion and plated in black-walled, BioCoat™ collagen 384-well plates at 13,000 cells/well in InVitroGro CP™ plating media supplemented with 1% Torpedo™ Antibiotic Mix and 5% fetal bovine serum and incubated overnight for 18 h. Cells were then treated with compounds for 48 h diluted in InVitroGro HI™ incubation media containing 1% Torpedo Antibiotic Mix, 10% fetal bovine serum, and 1% DMSO. […] Luminescence was determined on an EnVision™ Muliplate Reader (PerkinElmer, Waltham, MA, USA), and data were normalized to vehicle (1% DMSO) control wells.

[4] = Clinical DILI severity categorization and DILI pattern; details: P = DILI severity categories 1, 2 and 3; N = categories 4 and 5
[5] = cited from earlier work
[6] = tested on: 3D human liver microtissues (hLiMT); assay: Cytotoxicity (cellular ATP) in 3D human liver microtissues, 5-6 days treatment; assay type: cell-based; details: Homo sapiens; hLiMT, 5/6 days, ATP content; read-out: IC50 SHORT;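 also: Hanging-drop spheroids, seven-point dilution series, re-dosed on day 3, CellTiter-Glo 2.0 luminescence, normalized to 0.5 or 1% DMSO vehicle controls on the same plate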
[7] = ref Chen et al 2016 / Chen et al 2011; cited from earlier work
[8] = Hepatocyte, read-out: Geomean IC50 [µM]
[9] = Table 1, ref Garside et al. (2014)
[10] = clinical DILI severity category, 1-5
[11] = table S-5, ref Garside et al. 2014
[12] = 2D primary human hepatocytes (lot IZT), 48 h treatment, total cellular ATP content
[13] = human Cmax total, used for IC50/Cmax
[14] = human total plasma Cmax, ref literature values
[15] = table S-4, ref Garside et al. 2014

Compound	IC50 [1, 8]	P/N (DILI positive / DILI negative) [2]	DILI severity category [2, 9]	DILI severity category [2, 10]	DILI category ([2]; ref Garside et al. 2014)	DILI severity category [2, 11]	IC50 [3, 12]	P/N (DILI positive / DILI negative) [4]	Cmax [5, 13]	Cmax [5, 14]	IC50 [6]	IC50 ([1]; read-out: IC50 LONG)	DILI severity category [2, 15]	FDA DILI Classification DILI severity score [7]	LTKB DILI classification [7]	change of IC50 with prolonged exposure ([1]; hLiMT 14 days versus 5-6 days)	IC50 ([3]; Homo sapiens, 48 h)	classification at 50× MOS threshold ([1]; hLiMT 14 days)	cytotoxicity IC50 detected ([3]; PHH 48 h, in words)
C#CCN(C)Cc1ccccc1 [Pargyline]	> 100 µM	N	4: Enzyme elevations in clinic (N = 16)	4. Enzyme Elevations in Clinic	4. Enzyme Elevations in Clinic	4. Enzyme Elevations in Clinic	> 100 µM	N	1000 nM	1000 nM	–	–	–	–	–	–	–	–	–
CC1=C(/C=C/C(C)=C/C=C/C(C)=C/C(=O)O)C(C)(C)CCC1 [Tretinoin]	> 17 µM	–	3: Low clinical DILI concern (N = 23)	3. Low Clinical DILI Concern	3. Low Clinical DILI Concern	–	> 100 µM	–	1330 nM	1330 nM	29.2 µM	17 µM	3	3	Ambiguous DILI concern	–	–	–	–
CC(C)C(=O)Nc1ccc([N+](=O)[O-])c(C(F)(F)F)c1 [Flutamide]	25.7 µM	–	1: Severe clinical DILI (N = 23)	1. Severe Clinical DILI	1. Severe Clinical DILI	–	73 µM	–	5400 nM	5430 nM	12.5 µM	–	1	8	most DILI concern	higher IC50 value	–	–	–
CC(C)(C)NCC(O)c1ccc(O)c(CO)c1 (centres unmarked) [Albuterol]	–	N	5: No DILI (N = 25)	5. No DILI	5. No DILI	–	–	N	80 nM	80 nM	–	–	–	–	no DILI concern	–	–	–	–
NC(CO)C(=O)NNCc1ccc(O)c(O)c1O (centres unmarked) [Benserazide]	> 62.5 µM	N	5: No DILI (N = 25)	5. No DILI	5. No DILI	–	> 500 µM	N	3890 nM	3890 nM	–	–	–	–	–	–	–	–	–
O=C1CN(/N=C/c2ccc([N+](=O)[O-])o2)C(=O)N1 [Nitrofurantoin]	–	–	2: High clinical DILI concern (N = 23)	2. High Clinical DILI Concern	2. High Clinical DILI Concern	–	–	–	21000 nM	21000 nM	100 µM	–	2	8	most DILI concern	–	–	–	–
CC(=O)N1CCN(c2ccc(OCC3COC(Cn4ccnc4)(c4ccc(Cl)cc4Cl)O3)cc2)CC1 (centres unmarked) [Ketoconazole]	4.6 µM	–	1: Severe clinical DILI (N = 23)	1. Severe Clinical DILI	1. Severe Clinical DILI	–	47.2 µM	–	11300 nM	11300 nM	8.5 µM	–	1	8	most DILI concern	–	–	–	–
[H]/N=C(/N)c1ccc(NCc2nc3cc(C(=O)N(CCC(=O)O)c4ccccn4)ccc3n2C)cc1 [Dabigatran]	> 50 µM	N	4: Enzyme elevations in clinic (N = 16)	4. Enzyme Elevations in Clinic	4. Enzyme Elevations in Clinic	–	–	N	370 nM	370 nM	–	–	–	–	–	–	> 25 µM	–	–
O=C1CC2(CCCC2)CC(=O)N1CCCCN1CCN(c2ncccn2)CC1 [Buspirone]	163 µM	N	4: Enzyme elevations in clinic (N = 16)	4. Enzyme Elevations in Clinic	4. Enzyme Elevations in Clinic	–	> 200 µM	N	10 nM	10 nM	–	–	–	–	–	–	–	not	–
CN(C)C(=N)N=C(N)N [Metformin]	> 100 µM	–	3: Low clinical DILI concern (N = 23)	3. Low Clinical DILI Concern	3. Low Clinical DILI Concern	–	> 100 µM	–	7740 nM	7740 nM	100 µM	–	3	0	less DILI concern	–	–	–	–
CN(Cc1cnc2nc(N)nc(N)c2n1)c1ccc(C(=O)N[C@@H](CCC(=O)O)C(=O)O)cc1 [Methotrexate]	> 100 µM	–	1: Severe clinical DILI (N = 23)	1. Severe Clinical DILI	1. Severe Clinical DILI	–	> 100 µM	–	5000 nM	5000 nM	100 µM	–	1	3	most DILI concern	–	–	–	–
Cc1cc(CC(=O)O)n(C)c1C(=O)c1ccc(Cl)cc1 [Zomepirac]	> 1000 µM	N	5: No DILI (N = 25)	5. No DILI	5. No DILI	–	> 1000 µM	N	13700 nM	13700 nM	–	–	–	–	–	–	–	–	–
COc1ccccc1Oc1c(NS(=O)(=O)c2ccc(C(C)(C)C)cc2)nc(-c2ncccn2)nc1OCCO [Bosentan]	~93 µM	–	1: Severe clinical DILI (N = 23)	1. Severe Clinical DILI	1. Severe Clinical DILI	–	> 200 µM	–	–	–	100 µM	93 µM	1	7	most DILI concern	–	–	–	no IC50 values were detected
CN(C)CCC(c1ccc(Cl)cc1)c1ccccn1 (centres unmarked) [Chlorpheniramine]	–	–	3: Low clinical DILI concern (N = 23)	3. Low Clinical DILI Concern	3. Low Clinical DILI Concern	–	–	–	44 nM	43.7 nM	100 µM	–	3	0	no DILI concern	–	–	–	–
CN[C@@H]1[C@H](O)[C@H](NC)[C@H]2O[C@@]3(O)C(=O)C[C@@H](C)O[C@H]3O[C@@H]2[C@H]1O [Spectinomycin]	> 100 µM	–	3: Low clinical DILI concern (N = 23)	3. Low Clinical DILI Concern	3. Low Clinical DILI Concern	–	> 100 µM	–	323000 nM	323000 nM	100 µM	–	3	3	Ambiguous DILI concern	–	–	–	–
CN(C)C(=O)Oc1cccc([N+](C)(C)C)c1 [Neostigmine]	> 10 µM	N	5: No DILI (N = 25)	5. No DILI	5. No DILI	–	> 10 µM	N	45 nM	44.8 nM	–	–	–	–	–	–	–	–	–
O=C(NC1CCN(CCc2c[nH]c3ccccc23)CC1)c1ccccc1 [Indoramin]	> 50 µM	N	5: No DILI (N = 25)	5. No DILI	5. No DILI	–	> 50 µM	N	290 nM	290 nM	–	–	–	–	–	–	–	–	–
Fc1ccc([C@@H]2CCNC[C@H]2COc2ccc3c(c2)OCO3)cc1 [Paroxetine]	12 µM	–	2: High clinical DILI concern (N = 23)	2. High Clinical DILI Concern	2. High Clinical DILI Concern	–	15.3 µM	–	200 nM	200 nM	21.3 µM	–	2	8	less DILI concern	–	–	–	–
Cc1ccccc1C(OCCN(C)C)c1ccccc1 (centres unmarked) [Orphenadrine]	–	N	5: No DILI (N = 25)	5. No DILI	5. No DILI	5. No DILI	–	N	740 nM	740 nM	–	–	–	0	no DILI concern	–	–	–	–

Source: article PMC5515971, “Utility of spherical human liver microtissues for prediction of clinical drug-induced liver injury” (Archives of Toxicology, 2017)
